Experimental data reported in patent US20220279787A1, “a-Substituted Phenyl Structure-Containing Compound, Preparation Method Thereof, and Disinfectant” (Henan Ruibo Pharmaceutical Technology Co. Ltd., priority 2019, published 2022).

What was measured:
Assay type in all cases: cell-based
[1] = tested on: Bacillus subtilis var. niger spores ATCC 9372; experiment: Suspension quantitative experiment, Bacillus subtilis var. niger spores; settings: for Killing logarithmic value: suspension method
Description: (4) Operation Method of Suspension Quantitative Experiment:
a. The Bacillus subtilis var. niger spores ATCC 9372 freeze-dried strain tube was provided, opened up under an aseptic condition, and an appropriate amount of nutrient broth was added thereto with a capillary pipette. The strain was melted and dispersed by gently blowing and sucking several times. A test tube containing 5.0 mL-10.0 mL of nutrient broth medium was provided, and a small amount of bacterial suspension was dropped thereto, and incubated at 37° C. for 18 h-24 h. The bacterial suspension of the first generation culture was taken by using an inoculation loop.
b. The monoclonal strains of the first generation culture were picked out and placed in 3 mL of NMB. The strains were shaken in a constant temperature culture shaker for 3 h with a rotation speed of 220 rpm, obtaining a bacterial suspension with a concentration of (1-5)×10^8 CFU/mL.
c. 0.5 mL of bacterial suspension was added to a sterile test tube, and 0.5 mL of an organic interfering substance (0.03 mol/L PBS buffer) was then added thereto. They were mixed to be uniform, and placed in a water bath at 20° C.±1° C. for 5 min. 4.0 mL of the sample to be tested prepared in step (1) was drawn with a sterile pipette and injected into the mixed solution, mixed quickly, and the time was recorded immediately.
d. After the experimental bacteria interacted with the sample to be tested for the predetermined time. 0.5 mL of the mixture of the experimental bacteria and a disinfectant was drawn respectively and added to 4.5 mL of a neutralizer, and mixed to be uniform.
e. After 10 min of neutralization, 1.0 mL of the sample solution was drawn, and the number of viable bacteria was determined by viable count method. After the viable count method, sample solution of each pipette was inoculated onto 2 plates. When the number of colonies growing on the plate was large, 10-fold dilution was performed, and then the viable bacteria was cultured and counted.
h. At the same time, PBS buffer was used to replace the sample to be tested, and a parallel test was performed as a positive control.
f. All test samples were placed in a 37° C. incubator overnight, and the results were observed.
g. The experiment was repeated for 3 times, the concentration of viable bacteria (CFU/mL) of each group was calculated, and converted to logarithmic value (N), and then the killing logarithmic value was calculated according to the following equation:
Killing logarithmic value (KL)=the logarithmic value of the average viable bacteria concentration of the control group (No)−the logarithmic value of the viable bacteria concentration of the test group (Nx).
When calculating the killing logarithmic value, two digits after the decimal point was kept, and digital round-off was allowed.

[2] = tested on: Bacillus subtilis var. niger spores ATCC 9372; experiment: Carrier immersion quantitative sterilization test; settings: carrier method
Description: (5) Operation Method of the Carrier Immersion Quantitative Sterilization Test:
a. A sterile small plate was provided, and marked with the concentration of the sample to be tested injected. The sample to be tested of the corresponding concentration was drawn and injected into the plate in an amount of 5.0 mL per piece.
b. 3 pieces of Bacillus subtilis var. niger spores were placed on the plate by using a sterile tweezer, and soaked in the sample to be tested.
c. After the bacteria and drugs interacted for each predetermined time, the bacteria pieces were taken out by using a sterile tweezer and transferred into a test tube containing 5.0 mL of a neutralizer. The test tube was vibrated 80 times in the palm of the hand to wash the bacteria on the bacteria piece into the neutralization solution, left to stand for another 10 min to fully neutralize. Finally after further mixing, 1.0 mL of the mixture was drawn and directly inoculated onto the plate, 2 plates for each pipette, and the number of viable bacteria was determined.
d. Another plate was provided, and 10.0 mL of PBS buffer was injected instead of the sample to be tested. 2 pieces of bacteria were added thereto as the positive control group, and the subsequent test steps and viable bacteria culture and counting were the same as the above test groups.
e. All test samples were cultured overnight in a 37° C. incubator, and the results were observed.
f. The experiment was repeated for 3 times (including the control group), and the number of viable bacteria (CFU/piece) in each group was calculated and converted to a logarithmic value (N).

[3] = tested on: Escherichia coli ATCC 25922; experiment: Neutralizer identification experiment, Escherichia coli
Description: (§1) (4) Experimental Method for Selecting a Neutralizer:
(§2) Escherichia coli ATCC 25922 and Staphylococcus aureus ATCC 29213 were used as the experimental strains, and the concentration of the drug to be tested was set to be 2.5 g/L. The experiment was carried out according to the suspension quantitative sterilization procedure, with three repetitions, and six parallel groups:
(§3) Group I: 100 μL of a bacterial suspension (Escherichia coli ATCC 25922 with a concentration of 1×10^8 CFU/mL and Staphylococcus aureus ATCC 29213 with a concentration of 1×10^8 CFU/mL) interacted with 400 μL of the drug to be tested for 5 min; 50 μL of the mixed solution and 450 μL of PBS buffer were mixed to be uniform and diluted; the viable bacteria therein was counted;
(§4) Group II: 100 μL a bacterial suspension (Escherichia coli ATCC 25922 with a concentration of 1×10^8 CFU/mL and Staphylococcus aureus ATCC 29213 with a concentration of 1×10^8 CFU/mL) interacted with 400 μL of the drug to be tested for 5 min; 50 μL of the mixed solution and 450 μL of a neutralizer were mixed to be uniform and reacted for 10 min, and diluted; the viable bacteria therein was counted;
(§5) Group III: 10 μL of a bacterial suspension, 40 μL of sterile water, and 450 μL of a neutralizer were reacted for 10 min; the reaction solution was diluted, and the viable bacteria therein was counted;
(§6) Group V: 100 μL of bacterial suspension and 400 μL of a neutralizer were reacted for 5 min; 50 μL of the mixture and 450 μL of PBS buffer were mixed to be uniform, and then diluted; the viable bacteria therein was counted;
(§7) Group VI: a mixture of culture medium and PBS buffer was used as negative control.
(§8) Determination of the Results:
(§9) Group I had no bacteria growth or a small amount of bacteria growth;
(§10) Group II had bacteria growth, and the number of bacteria was not less than 100 CFU/mL;
(§11) the error rate of the number of bacteria between the Group III, Group IV, and Group V was less than or equal to 15%;
(§12) Group VI had no bacteria growth.

[4] = tested on: Staphylococcus aureus ATCC 29213; experiment: Neutralizer identification experiment, Staphylococcus aureus
Description: as §1, §2, §3, §4, §5, §6, §7, §8, §9, §10, §11, §12

[5] = 2.5 g/L drug reacted with neutralizer 10 min, then bacterial suspension added
[6] = 2.5 g/L drug, 5 min, then mixed with PBS buffer
[7] = 2.5 g/L drug, 5 min, then neutralizer 10 min

Structure (SMILES): O=Cc1ccccc1C=O [o-Phthalaldehyde solution, o-Phthalaldehyde]
- Killing logarithmic value ([1]; 5 g/L, 10 min): 5.23
- Killing logarithmic value ([1]; 5 g/L, 20 min): 5.31
- Killing logarithmic value ([1]; 5 g/L, 30 min): 5.39
- Killing logarithmic value ([1]; 10 g/L, 10 min): 5.41
- Killing logarithmic value ([1]; 10 g/L, 20 min): 5.49
- Killing logarithmic value ([1]; 10 g/L, 30 min): 5.57
- Killing logarithmic value ([1]; 15 g/L, 10 min): 5.53
- Killing logarithmic value ([1]; 15 g/L, 20 min): 5.68
- Killing logarithmic value ([1]; 15 g/L, 30 min): 5.71
- Killing logarithmic value ([2]; 5 g/L, 1 h): 1.95
- Killing logarithmic value ([2]; 5 g/L, 2 h): 3.23
- Killing logarithmic value ([2]; 5 g/L, 3 h): 5.21
- Killing logarithmic value ([2]; 5 g/L, 4 h): 5.53
- Killing logarithmic value ([2]; 10 g/L, 1 h): 2.19
- Killing logarithmic value ([2]; 10 g/L, 2 h): 5.12
- Killing logarithmic value ([2]; 10 g/L, 3 h): 5.26
- Killing logarithmic value ([2]; 10 g/L, 4 h): 5.53
- Killing logarithmic value ([2]; 15 g/L, 1 h): 3.23
- Killing logarithmic value ([2]; 15 g/L, 2 h): 5.21
- Killing logarithmic value ([2]; 15 g/L, 3 h): 5.36
- Killing logarithmic value ([2]; 15 g/L, 4 h): 5.53

Structure (SMILES): CNC(=O)C(c1ccc(O)c(O)c1)c1ccco1 (stereo not shown) [Example 5, 2-(3,4-dihydroxyphenyl)-2-(2-furyl)-N-methylacetamide]
- log reduction at 15000 µg/mL ([1]; Bacillus subtilis, ATCC9372, 0.5 h, read-out: Activity (killing logarithmic value)): 5.6
- Viable bacteria count, Group IV [3, 5]: 6 × 10^6 CFU/mL
- Viable bacteria count, Group I [3, 6]: 2 × 10^4 CFU/mL
- Viable bacteria count, Group II [3, 7]: 400 CFU/mL
- Viable bacteria count, Group IV [4, 5]: 7 × 10^5 CFU/mL
- Viable bacteria count, Group I [4, 6]: 3 × 10^4 CFU/mL
- Viable bacteria count, Group II [4, 7]: 5 × 10^4 CFU/mL
